Patent publication US8226943B2, “Antibodies to notch receptors” (OncoMed Pharmaceuticals, Inc., priority 2008, dated 2012)

Key:
[1] = target: T1, human Notch2 EGF deletion and point mutants (Homo sapiens, UniProt Q04721, A388S/H385N/L389N); assay: FACS epitope mapping with full-length hNotch2 deletion and point mutants; format: binding; settings: FACS on point mutants
T1 construct: several point mutants were created within full-length Notch2; expressed in transfected cells; host or cells: HEK-293, transient, co-transfected with GFP
T1 sequence (Q04721 26-2471 H385N/A388S/L389N): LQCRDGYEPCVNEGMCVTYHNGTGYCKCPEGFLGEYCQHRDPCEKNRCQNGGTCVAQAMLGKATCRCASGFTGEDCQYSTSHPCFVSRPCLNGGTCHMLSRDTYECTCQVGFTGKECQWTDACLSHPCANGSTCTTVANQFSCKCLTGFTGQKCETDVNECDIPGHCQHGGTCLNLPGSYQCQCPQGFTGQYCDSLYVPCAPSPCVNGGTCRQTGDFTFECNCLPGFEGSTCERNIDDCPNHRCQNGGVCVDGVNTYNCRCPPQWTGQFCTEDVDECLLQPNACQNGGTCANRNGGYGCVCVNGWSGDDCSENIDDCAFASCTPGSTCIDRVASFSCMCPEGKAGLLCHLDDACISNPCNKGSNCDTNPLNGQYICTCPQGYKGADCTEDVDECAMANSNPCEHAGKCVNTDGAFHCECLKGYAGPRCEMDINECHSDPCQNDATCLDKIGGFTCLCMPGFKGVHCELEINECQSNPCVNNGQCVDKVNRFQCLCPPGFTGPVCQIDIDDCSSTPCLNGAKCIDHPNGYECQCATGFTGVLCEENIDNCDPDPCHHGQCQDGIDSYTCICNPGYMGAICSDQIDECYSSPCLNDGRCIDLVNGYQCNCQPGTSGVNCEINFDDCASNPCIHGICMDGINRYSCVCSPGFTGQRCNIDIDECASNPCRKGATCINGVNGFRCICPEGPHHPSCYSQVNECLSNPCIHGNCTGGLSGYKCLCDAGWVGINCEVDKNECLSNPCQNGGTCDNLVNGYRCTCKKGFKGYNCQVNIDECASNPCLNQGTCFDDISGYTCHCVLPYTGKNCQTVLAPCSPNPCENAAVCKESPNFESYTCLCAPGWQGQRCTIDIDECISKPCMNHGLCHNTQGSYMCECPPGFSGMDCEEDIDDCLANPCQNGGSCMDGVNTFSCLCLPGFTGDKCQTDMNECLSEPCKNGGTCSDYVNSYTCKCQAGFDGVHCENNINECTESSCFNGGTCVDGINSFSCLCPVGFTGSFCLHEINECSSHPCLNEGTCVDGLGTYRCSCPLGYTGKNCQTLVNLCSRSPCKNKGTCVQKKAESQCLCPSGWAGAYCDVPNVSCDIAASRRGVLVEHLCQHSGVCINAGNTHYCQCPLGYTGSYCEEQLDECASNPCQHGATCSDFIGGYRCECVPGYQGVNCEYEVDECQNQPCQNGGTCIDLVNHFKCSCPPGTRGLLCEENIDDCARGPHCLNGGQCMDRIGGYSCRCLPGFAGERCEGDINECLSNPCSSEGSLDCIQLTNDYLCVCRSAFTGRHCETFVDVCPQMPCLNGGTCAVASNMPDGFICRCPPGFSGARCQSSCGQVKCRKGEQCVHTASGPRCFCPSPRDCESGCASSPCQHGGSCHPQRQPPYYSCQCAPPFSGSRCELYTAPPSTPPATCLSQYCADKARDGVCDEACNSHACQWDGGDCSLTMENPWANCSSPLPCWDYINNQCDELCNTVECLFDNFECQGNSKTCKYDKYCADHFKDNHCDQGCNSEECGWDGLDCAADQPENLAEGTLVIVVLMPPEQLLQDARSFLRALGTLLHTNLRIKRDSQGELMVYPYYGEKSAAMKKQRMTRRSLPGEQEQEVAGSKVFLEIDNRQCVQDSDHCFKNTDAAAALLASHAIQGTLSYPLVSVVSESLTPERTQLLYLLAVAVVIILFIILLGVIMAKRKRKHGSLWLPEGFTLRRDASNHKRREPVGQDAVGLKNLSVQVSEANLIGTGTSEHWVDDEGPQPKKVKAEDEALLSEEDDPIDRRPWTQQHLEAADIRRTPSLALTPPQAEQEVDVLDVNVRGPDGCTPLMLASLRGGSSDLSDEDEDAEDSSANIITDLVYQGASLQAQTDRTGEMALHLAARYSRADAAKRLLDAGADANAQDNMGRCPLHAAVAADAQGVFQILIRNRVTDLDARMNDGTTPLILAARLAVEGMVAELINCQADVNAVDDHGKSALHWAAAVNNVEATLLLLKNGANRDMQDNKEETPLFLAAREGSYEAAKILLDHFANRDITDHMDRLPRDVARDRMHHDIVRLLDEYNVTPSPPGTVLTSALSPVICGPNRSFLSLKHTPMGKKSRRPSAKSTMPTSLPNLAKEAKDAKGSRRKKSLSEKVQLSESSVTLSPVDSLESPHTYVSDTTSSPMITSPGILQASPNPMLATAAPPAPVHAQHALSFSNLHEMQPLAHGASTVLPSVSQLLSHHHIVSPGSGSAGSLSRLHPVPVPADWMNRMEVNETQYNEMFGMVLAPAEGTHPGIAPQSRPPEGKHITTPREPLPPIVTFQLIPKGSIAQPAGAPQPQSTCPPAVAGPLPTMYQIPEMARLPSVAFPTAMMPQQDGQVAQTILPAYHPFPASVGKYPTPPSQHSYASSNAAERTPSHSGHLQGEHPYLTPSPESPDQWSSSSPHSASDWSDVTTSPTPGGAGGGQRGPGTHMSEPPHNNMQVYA
Experimental: (§1) Point mutations were made within EGF10 of Notch2 fusion proteins and binding of 59R1 to each EGF10 mutant was determined by FACS analysis. HEK-293 cells were transiently transfected with the indicated Notch expression plasmid and GFP as a transfection control. GFP positive cells indicated expression of the transgene. The 59R1 Fab antibody was added to the cells at 10 μg/ml and detected by PE-conjugated goat anti-human (Jackson Immunochemicals).
(§2) FACS analysis of HEK-293 cells transiently transfected with the indicated Notch expression plasmid and GFP as a transfection control. GFP positive cells indicate expression of the transgene. Anti-Notch2 (59M70) was added at 20 μg/ml and detected by PE-conjugated goat anti-mouse (Caltag, #3004-4). 59R1 (IgG2) was added to the cells at 2 μg/ml and detected by PE-conjugated goat anti-human Fc gamma specific (Jackson Immunochemicals). Ligand binding was determined by incubation of the cells with human DLL4 extracellular domain (ECD) fused to rabbit IgG constant region at 5 μg/ml and detected by PE-conjugated donkey anti-rabbit.
(§3) A comparison analysis of the EGF 10 regions of human Notch1, Notch2, and Notch4 and the EGF 9 region of human Notch3 (the equivalent of EGF 10 in the other Notch receptors) was performed to determine likely binding sites for 59R1 (FIG. 14A). […] Binding to the mutants was determined by FACS analysis (FIGS. 14B and 14C). […]

[2] = target: T2, human Notch2 EGF deletion and point mutants (Homo sapiens, UniProt Q04721, DEL375-412); assay: as above; format: binding; settings: HEK-293 transiently transfected
T2 construct: several point mutants were created within full-length Notch2; expressed in transfected cells; host or cells: HEK-293, transient, co-transfected with GFP
T2 sequence (Q04721 with tags, fused parts or gaps DEL375-412): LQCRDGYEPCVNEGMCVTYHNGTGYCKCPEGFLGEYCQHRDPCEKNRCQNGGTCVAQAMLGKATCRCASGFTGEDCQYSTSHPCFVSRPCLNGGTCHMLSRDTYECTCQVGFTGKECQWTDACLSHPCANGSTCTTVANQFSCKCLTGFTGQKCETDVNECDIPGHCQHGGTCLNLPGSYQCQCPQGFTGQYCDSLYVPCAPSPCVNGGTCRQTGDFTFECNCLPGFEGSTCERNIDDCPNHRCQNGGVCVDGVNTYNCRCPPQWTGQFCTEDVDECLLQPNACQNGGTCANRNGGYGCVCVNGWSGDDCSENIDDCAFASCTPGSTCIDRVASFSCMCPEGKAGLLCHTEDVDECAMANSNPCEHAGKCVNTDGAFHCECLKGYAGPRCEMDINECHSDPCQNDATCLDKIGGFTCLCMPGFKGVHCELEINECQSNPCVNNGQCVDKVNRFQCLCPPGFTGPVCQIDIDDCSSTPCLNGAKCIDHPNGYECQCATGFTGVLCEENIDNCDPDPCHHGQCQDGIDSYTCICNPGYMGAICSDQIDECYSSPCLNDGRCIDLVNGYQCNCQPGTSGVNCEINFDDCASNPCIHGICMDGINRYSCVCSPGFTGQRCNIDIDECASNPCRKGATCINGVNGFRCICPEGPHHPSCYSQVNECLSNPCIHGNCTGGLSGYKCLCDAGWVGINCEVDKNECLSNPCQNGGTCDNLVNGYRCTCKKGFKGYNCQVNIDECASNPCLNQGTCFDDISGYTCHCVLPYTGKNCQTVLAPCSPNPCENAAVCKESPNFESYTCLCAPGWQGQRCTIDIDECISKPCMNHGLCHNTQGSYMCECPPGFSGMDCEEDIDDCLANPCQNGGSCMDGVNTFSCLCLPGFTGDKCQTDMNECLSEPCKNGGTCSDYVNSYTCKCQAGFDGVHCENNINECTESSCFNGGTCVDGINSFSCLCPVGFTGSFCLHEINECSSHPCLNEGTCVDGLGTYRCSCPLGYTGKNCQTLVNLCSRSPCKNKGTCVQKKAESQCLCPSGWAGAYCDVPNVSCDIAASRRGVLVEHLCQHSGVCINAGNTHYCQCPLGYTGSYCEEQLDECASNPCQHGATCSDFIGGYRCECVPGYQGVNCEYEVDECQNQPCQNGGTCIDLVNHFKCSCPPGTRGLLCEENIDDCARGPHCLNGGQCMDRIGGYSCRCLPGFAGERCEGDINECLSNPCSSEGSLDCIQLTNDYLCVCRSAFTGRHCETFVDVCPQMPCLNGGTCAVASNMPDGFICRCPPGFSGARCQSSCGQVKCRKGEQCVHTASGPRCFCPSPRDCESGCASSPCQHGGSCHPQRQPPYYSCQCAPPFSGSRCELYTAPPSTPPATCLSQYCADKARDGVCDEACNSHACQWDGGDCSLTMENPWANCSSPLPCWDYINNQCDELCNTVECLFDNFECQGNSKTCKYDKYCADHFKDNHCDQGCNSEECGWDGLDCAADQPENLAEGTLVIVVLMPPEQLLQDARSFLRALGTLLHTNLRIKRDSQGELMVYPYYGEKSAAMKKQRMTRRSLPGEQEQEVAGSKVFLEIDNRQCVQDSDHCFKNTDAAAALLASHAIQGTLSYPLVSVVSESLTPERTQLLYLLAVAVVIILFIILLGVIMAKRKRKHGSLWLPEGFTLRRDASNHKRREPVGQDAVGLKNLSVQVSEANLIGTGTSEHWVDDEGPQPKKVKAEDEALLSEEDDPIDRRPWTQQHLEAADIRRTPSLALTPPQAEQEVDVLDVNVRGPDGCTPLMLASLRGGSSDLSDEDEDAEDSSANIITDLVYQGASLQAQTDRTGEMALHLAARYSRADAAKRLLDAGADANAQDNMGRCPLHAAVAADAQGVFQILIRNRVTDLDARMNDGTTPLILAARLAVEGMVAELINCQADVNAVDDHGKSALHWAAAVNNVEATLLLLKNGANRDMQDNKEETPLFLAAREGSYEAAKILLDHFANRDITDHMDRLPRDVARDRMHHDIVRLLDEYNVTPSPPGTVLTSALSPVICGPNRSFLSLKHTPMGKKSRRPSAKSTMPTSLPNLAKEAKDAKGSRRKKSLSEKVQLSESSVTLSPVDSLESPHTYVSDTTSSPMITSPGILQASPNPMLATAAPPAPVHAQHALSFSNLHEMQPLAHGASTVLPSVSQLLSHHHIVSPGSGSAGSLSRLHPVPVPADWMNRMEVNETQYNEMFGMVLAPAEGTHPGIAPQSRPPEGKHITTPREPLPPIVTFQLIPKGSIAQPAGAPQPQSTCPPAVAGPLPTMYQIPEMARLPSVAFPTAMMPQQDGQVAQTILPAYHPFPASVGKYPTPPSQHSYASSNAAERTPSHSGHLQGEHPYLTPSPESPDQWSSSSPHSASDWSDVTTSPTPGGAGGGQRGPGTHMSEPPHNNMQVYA
Experimental: as §1, §2, §3

[3] = tested on: T3 breast tumor cells; assay: T3 breast tumor xenograft growth; format: in vivo, NOD/SCID mice
Experimental: In certain embodiments, NOD/SCID mice injected with 50,000 PE13 or T3 breast tumor cells were treated with anti-Notch2/3 antibody 59R1 or control antibody 1B7.11 two days following cell injections. Antibodies were dosed at 10 mg/kg twice week.
In a further experiment, anti-Notch2/3 antibodies were tested for an effect on breast tumor growth. NOD/SCID mice were injected with 50,000 PE13 or T3 breast tumor cells, and tumors were allowed to grow to a size of between 65 to 200 mm^3 after which mice were randomized (n=10 per experimental group), and antibodies administration begun. Animals were treated with 15 mg/kg of either control 1B7.11 antibodies or anti-Notch2/3 59R1 antibodies twice weekly. Tumor size was measured twice weekly, and tumor volume was calculated as described (see Michieli et al., 2004).

[4] = tested on: breast tumor xenograft line OMP-B34; assay: OMP-B34 breast tumor xenograft growth; format: in vivo, NOD/SCID mice; settings: established tumors, 15 mg/kg once a week
Experimental: The 59R1 IgG2 antibody was also tested in vivo in the breast tumor xenograft lines OMP-B34, OMP-B39, OMP-B44, PE13, and UM-T1, the pancreas tumor xenograft line OMP-PN8, and the colon tumor xenograft line OMP-C8. These tumor xenograft lines were established by adhering to procedures described in Al-Hajj et al., 2003, Proc. Natl. Acad. Sci. USA, 100:3983-3988. Female NOD/SCID immuno-compromised mice 7-10 weeks old were used for the establishment of the breast tumor xenografts and male NOD/SCID mice were used for the OMP-Pn8 and OMP-C8 tumor-models (Harlan, Indianapolis, Ind.). The 59R1 IgG2 antibody was also tested in vivo in a Colo-205 colon tumor xenograft model. Female immunodeficient bg/nu XID mice on a Swiss CD-1 background were used for the Colo-205 xenograft tumor model. In case of the breast cancer models, slow-releasing estrogen pellets (0.36 mg) had to be implanted. Mice were subcutaneously injected on the right flank with 50,000 (OMP-B34, OMP-B39, OMP-B44, PE13, and UM-T1) or 1×10^7 (Colo-205) viable cells, respectively, in a mixture of PBS (without magnesium or calcium) and Matrigel at a 1:1 ratio. […] Antibodies were administered weekly and tumors measured twice weekly. […] Tumor volume was calculated as described Al-Hajj et al. (2003). Data are expressed as the mean and the mean±S.E.M. Group means were compared using Student's two-tailed, unpaired t-test. […]

[5] = tested on: stroma of Colo205 tumors; assay: Microarray gene expression in stroma of treated xenograft tumors, Colo205; format: in vivo, mice; settings: 59R1 vs control
[6] = tested on: murine Notch2; assay: DLL4-Fc induced receptor activation in transfected PC3 cells, murine Notch2; format: cell-based, mouse; settings: immobilized DLL4-Fc
Experimental: 59R5 was determined to have similar activity in blocking Notch2 and Notch3 signaling as 59R1. Receptor activation was determined in luciferase-based assays. PC3 tumor cells were transiently transfected with a human or mouse Notch receptor (human Notch2, murine Notch2, human Notch3, or murine Notch3) and […] inducible reporter construct. Transfected cells were incubated with different concentrations of 59R1 or 59R5 antibody in the presence of passively immobilized DLL4-Fc protein. Notch receptor activation was determined by measuring luciferase activity.

Substance | amino acids necessary for binding to hNotch 2 [1] | FACS binding to hNotch2 in the absence of EGF 10 (missing amino acids 375-412) [2] | T3 tumor growth compared to control ([3]; 10 mg/kg twice week, started two days following cell injections) | T3 tumor growth compared to control ([3]; established tumors, 15 mg/kg twice weekly) | B34 breast cancer growth relative to control antibody [4] | Fold 1416286_at (Rgs4) [5] | Fold 1418829_a_at (Eno2) [5] | Fold 1419302_at (Heyl) [5] | Fold 1420941_at (Rgs5) [5] | Fold 1422789_at (Aldh1a2) [5] | Fold 1428361_x_at (Hba-al/Hba-a2) [5] | Fold 1449280_at (Esm1) [5] | Fold 1449632_s_at (Fkbp10) [5] | Fold 1459713_s_at (Tmem16a) [5] | ligand-induced activation of murine Notch2 receptor signaling [6]
59R1: human IgG2 antibody binding Notch2 and Notch3; heavy and light chain SEQ ID NO:16 and 18; ATCC PTA-9547 | histidine 385, alanine 388, and leucine 389 | does not | significantly reduced | significantly reduced | inhibit breast cancer growth | −3.08 | 1.79 | −3.28 | −5.10 | −1.73 | −8.91 | 2.07 | −1.72 | −1.90 | 
59R5: human antibody that specifically binds human Notch 2 and human Notch 3; heavy and light chain SEQ ID NO:49 and 18; ATCC PTA-10170 |  |  |  |  |  |  |  |  |  |  |  |  |  |  | blocked
